Measured values reported in patent US9333234B2, “Combination of somatostatin-analogs with 11beta-hydroxylase inhibitors” (Novartis AG, priority 2012, dated 2016).
Where two headings read alike, the source gives them in different places. Numbered stars: 1 amine (or outer) side, 2 acyl side, 3 side chain; on linkers, the order of the positions; unused ones are H or OH. Square brackets hold non-standard residues; d marks the D form. Side chains are listed from the residue outwards. Peptide text beside a SMILES is read from it. * marks the point of attachment. Ethylenediamine = C(CN[*:2])N[*:1]; Hyp = O=C(O)[C@@H]1C[C@@H](O)CN1; Phg = N[C@H](C(=O)O)c1ccccc1; CO = O=C([*:1])[*:2]; Bn = c1ccc(C*)cc1

How the values were obtained:
[1] = Solubility profile, excess solids equilibrated in each solvent; type: physicochemical
Protocol: Excess solids were equilibrated in each solvent for over 24 hours at 25° C.±0.1. Concentration in supernatant was measured by gravimetry for organic solvents and by HPLC from aqueous solvents and propylene glycol.

[2] = Solubility and stability in water at 0.1% target concentration, 50° C.; type: physicochemical; settings: for stability / behaviour in water: 2 days at 50° C.
Wistar Hannover rats = type: in vivo; settings: for Serum corticosterone, Change from Control (%): Female rats; for Effects on serum corticosterone (PD marker), in words: compared to control
From the text: Another group of rats (10/sex) received daily doses of Ultrapure water, by oral gavage, and the Acetate buffered solution pH 4.5 for injection USP, by subcutaneous injection, and served as controls.
Study activities included clinical examinations, involving twice daily exams for mortality and signs of ill health or reaction to treatment, daily pre-dose and 1-hour post dose cage-side observations, weekly detailed examination, body weights and food consumption, two ophthalmic examinations (pretreatment and week 13), clinical pathology (hematology, coagulation and clinical biochemistry, urinalysis) and immunology at the end of dosing (Adrenocorticotropic hormone, Corticosterone, Growth hormone, Insulin-like growth factor and urinalysis for Corticosterone). […] Post mortem evaluation included macroscopic observations, organ weight assessments (absolute and relative to body) and microscopic examinations.

[3] = tested on: patients with Cushing's disease
Protocol: Dose escalation was planned every 2 weeks to 5, 10, 20 and 50 mg bid until UFC normalized, in which case the dose was maintained until day 70, when treatment stopped. Dose reduction for tolerability was permitted. UFC was assessed on the penultimate day of each 2-week period. Patients were monitored until day 84. The primary endpoint was UFC≦ULN or a ≧50% decrease from baseline at day 70 using the mean of 3 UFC samples collected during the week before day 70.

[4] = Hygroscopicity, sorption/desorption isotherms (VTI 100 humidity microbalance); type: physicochemical; settings: 25° C.
Protocol: Sorption/desorption isotherms were measured using the VTI 100 humidity microbalance (VTI Corporation, Hialeah, Fla., USA). Measurements were carried out at 25° C. Samples were dried under N2 flow at 25° C.

[5] = tested on: Cushing's disease patients; settings: Colao et al. N Engl J Med 2012; 366:32-42; cited from earlier work
[6] = Female rats (n = 10), dose 20/— (COMPOUND A 20 mg/kg/day alone)
[7] = Male rats (n = 10), dose 20/— (COMPOUND A 20 mg/kg/day alone)
[8] = of the 9 patients who completed the active treatment phase
[9] = patients with Cushing's disease
[10] = Female rats (n = 10), dose —/0.3 (SOM230 0.3 mg/kg/day alone)
[11] = Male rats (n = 10), dose —/0.3 (SOM230 0.3 mg/kg/day alone)

N#Cc1ccc([C@H]2CCc3cncn32)c(F)c1 [Compound A, (R)-4-(6,7-Dihydro-5H-pyrrolo[1,2-c]imidazol-5-yl)-3-fluoro-benzonitrile]
Solubility ([1]; Ethanol, over 24 hours at 25° C.): >50 mg/mL
Solubility ([1]; Ethyl Acetate, over 24 hours at 25° C.): >50 mg/mL
Solubility ([1]; organic solvent or mixture, thermodynamic from solid, Acetone, over 24 hours at 25° C., read-out: Solubility): > 50 mg/mL
Solubility ([1]; simulated gastric fluid, thermodynamic from solid, pH 1, over 24 hours at 25° C., read-out: Solubility): > 50 mg/mL
solubility in water at the 0.1% target concentration [2]: largely insoluble
stability / behaviour in water [2]: converted from a free flowing solid into an oily material
Absolute adrenal weights (Wistar Hannover rats; [6]): 0.07002 g
Mean serum corticosterone level (Wistar Hannover rats; [6]): 166.76
Serum corticosterone, Change from Control (%) (Wistar Hannover rats; dose 20/— (COMPOUND A 20 mg/kg/day alone)): −36%
Absolute adrenal weights (Wistar Hannover rats; [7]): 0.04969 g
Mean serum corticosterone level (Wistar Hannover rats; [7]): 221.83
adrenalcortical hypertrophy (Wistar Hannover rats; female rats): produced adrenalcortical hypertrophy
Effects on serum corticosterone (PD marker), in words (Wistar Hannover rats; rats): decreases in serum corticosterone in females only
Effects on adrenal gland organ weights, in words (Wistar Hannover rats; rats, more pronounced in females): increased adrenal gland organ weights
ACTH level doubled, share of patients ([3]; 10-week trial): half of the patients
effect on urinary free cortisol (UFC) ([3]; 10-week trial): successfully reduced urinary free cortisol (UFC) in all patients
adverse event fatigue (patients) ([3]; 12 patients enrolled): 7/12
adverse event headache (patients) ([3]; 12 patients enrolled): 3/12
adverse event nausea (patients) ([3]; 12 patients enrolled): 4/12
patients with ACTH levels >2× baseline ([3]; 12 patients enrolled): Five
patients with study drug-related hypokalemia (K+<3.5 mmol/L) ([3]; 12 patients enrolled): Four
mean SBP decrease from baseline ([3]; day 70): 13.1 mmHg
patients with UFC >ULN after treatment discontinuation ([3]; measurements at day 84): 6 patients
patients achieving primary endpoint (UFC≦ULN or ≧50% decrease from baseline at day 70) [3, 8]: 9 patients
patients with normal UFC levels on day 70 [3, 8]: 8 patients
patients with normal UFC levels on at least one assessment during the study ([3]; oral, 2-50 mg bid dose escalation): 11 of 11
efficacy conclusion [3, 9]: demonstrated efficacy
tolerability / safety profile [3, 9]: satisfactory safety profile
tolerability / safety profile ([3]; patients with Cushing's disease, listed as COMPOUND A): generally well tolerated

N#Cc1ccc([C@H]2CCc3cncn32)c(F)c1.O=P(O)(O)O [Phosphate salt, Phosphate Salt of 4-(R)-6,7-dihydro-5H-pyrrolo[1,2-c]imidazol-5-yl-3-fluoro-benzonitrile (Form A)]
Solubility ([1]; Water, over 24 hours at 25° C.): >50 mg/mL
Solubility ([1]; pH 1, over 24 hours at 25° C.): >50 mg/mL
Solubility ([1]; pH 6.8, over 24 hours at 25° C.): >50 mg/mL
solubility in water at the 0.1% target concentration [2]: soluble
stability / behaviour in water [2]: stable
hygroscopicity, water uptake ([4]; 5% RH): 0%
hygroscopicity, water uptake ([4]; 75% relative humidity): 0.9%

NCCCC[C@@H]1NC(=O)[C@@H](Cc2c[nH]c3ccccc23)NC(=O)[C@H](c2ccccc2)NC(=O)[C@@H]2C[C@@H](OC(=O)NCCN)CN2C(=O)[C@H](Cc2ccccc2)NC(=O)[C@H](Cc2ccc(OCc3ccccc3)cc2)NC1=O [SOM230, cyclo[{4-(NH2—C2H4—NH—CO—O-)Pro}-Phg-DTrp-Lys-Tyr(4-Bzl)-Phe], reference compound] (cyclo([Hyp]([CO-Ethylenediamine])[Phg][dW]KY(Bn)F))
cortisol levels in Cushing's disease patients [5]: significant decrease of cortisol levels
Absolute adrenal weights (Wistar Hannover rats; [10]): 0.04585 g
Mean serum corticosterone level (Wistar Hannover rats; [10]): 190.56
Relative adrenal weight (% of body weight) (Wistar Hannover rats; [10]): 0.02432 % of body weight
Serum corticosterone, Change from Control (%) (Wistar Hannover rats; dose —/0.3 (SOM230 0.3 mg/kg/day alone)): −27%
Absolute adrenal weights (Wistar Hannover rats; [11]): 0.03615 g
Mean serum corticosterone level (Wistar Hannover rats; [11]): 233.68
Relative adrenal weight (% of body weight) (Wistar Hannover rats; [11]): 0.01326 % of body weight
Effects on serum corticosterone (PD marker), in words (Wistar Hannover rats; rats): decreases in serum corticosterone in females only
